This is an account of results in paper PMC9900903 (bioRxiv, 2023).

Like-named read-outs stand apart in the source and are kept apart here.

One assay concerns the target T1, Aap lectin domain (Staphylococcus epidermidis, UniProt Q5HKE8).
T1 sequence (Q5HKE8 351-605): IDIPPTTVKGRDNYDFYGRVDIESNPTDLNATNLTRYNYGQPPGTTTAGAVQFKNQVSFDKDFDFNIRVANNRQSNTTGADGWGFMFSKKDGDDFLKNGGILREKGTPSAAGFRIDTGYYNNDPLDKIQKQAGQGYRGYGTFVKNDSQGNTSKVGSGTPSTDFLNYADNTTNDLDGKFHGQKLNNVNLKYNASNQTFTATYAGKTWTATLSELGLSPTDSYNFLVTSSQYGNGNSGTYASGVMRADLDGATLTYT
Kind of assay: ITC. Type of assay: binding. The note with it: pH 7.2, 50 mM phosphate, 150 mM NaCl, 25 °C.

The target of another assay is T2, SasG lectin domain (Staphylococcus aureus, UniProt Q2G2B2).
T2 sequence (Q2G2B2 163-419): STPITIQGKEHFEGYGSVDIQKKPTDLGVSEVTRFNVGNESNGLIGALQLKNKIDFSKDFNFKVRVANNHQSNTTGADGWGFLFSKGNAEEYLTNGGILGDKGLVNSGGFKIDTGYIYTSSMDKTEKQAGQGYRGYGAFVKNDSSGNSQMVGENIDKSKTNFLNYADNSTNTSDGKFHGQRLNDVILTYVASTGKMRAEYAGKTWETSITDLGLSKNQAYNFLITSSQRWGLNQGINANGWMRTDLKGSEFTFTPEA
The assay can be described thus: ITC. Type of assay: binding. The note with it: pH 7.2, 50 mM phosphate, 150 mM NaCl, 25 °C.

In the case of `CC(=O)N[C@H]1C(O)O[C@H](CO)[C@@H](O[C@@H]2O[C@H](CO)[C@H](O)[C@H](O)[C@H]2O)[C@@H]1O` (stereo partly drawn) [N-acetyllactosamine], the Kd on Aap lectin domain (read-out: affinity) is about 130 µM. For the same molecule, the ITC entry on SasG lectin domain is “We confirmed that SasG lectin is able to bind N-acetyllactosamine by ITC”. `CC(=O)N[C@H]1[C@H]([C@H](O)[C@H](O)CO)O[C@@](O[C@H]2[C@@H](O)[C@@H](CO)O[C@@H](O[C@H]3[C@H](O)[C@@H](NC(C)=O)C(O)O[C@@H]3CO)[C@@H]2O)(C(=O)O)C[C@@H]1O` (stereo partly drawn) [3'-sialyl-N-acetyllactosamine] displayed a Kd on Aap lectin domain of 13 µM.
